Experimental data: ChEMBL document CHEMBL1152708, “Deconstructing estradiol: removal of B-ring generates compounds which are potent and subtype-selective estrogen receptor agonists” (Bioorg Med Chem Lett, 2009)

What was measured:
[1] = biological target: Estrogen receptor beta (Homo sapiens) (UniProt Q92731); test: Displacement of [3H]estradiol form ERbeta assessed as relative binding affinity relative to estradiol
[2] = biological target: T1, Estrogen receptor (Homo sapiens) (UniProt P03372); test: Displacement of [3H]estradiol form ERalpha assessed as relative binding affinity relative to estradiol
T1 sequence (whole entry): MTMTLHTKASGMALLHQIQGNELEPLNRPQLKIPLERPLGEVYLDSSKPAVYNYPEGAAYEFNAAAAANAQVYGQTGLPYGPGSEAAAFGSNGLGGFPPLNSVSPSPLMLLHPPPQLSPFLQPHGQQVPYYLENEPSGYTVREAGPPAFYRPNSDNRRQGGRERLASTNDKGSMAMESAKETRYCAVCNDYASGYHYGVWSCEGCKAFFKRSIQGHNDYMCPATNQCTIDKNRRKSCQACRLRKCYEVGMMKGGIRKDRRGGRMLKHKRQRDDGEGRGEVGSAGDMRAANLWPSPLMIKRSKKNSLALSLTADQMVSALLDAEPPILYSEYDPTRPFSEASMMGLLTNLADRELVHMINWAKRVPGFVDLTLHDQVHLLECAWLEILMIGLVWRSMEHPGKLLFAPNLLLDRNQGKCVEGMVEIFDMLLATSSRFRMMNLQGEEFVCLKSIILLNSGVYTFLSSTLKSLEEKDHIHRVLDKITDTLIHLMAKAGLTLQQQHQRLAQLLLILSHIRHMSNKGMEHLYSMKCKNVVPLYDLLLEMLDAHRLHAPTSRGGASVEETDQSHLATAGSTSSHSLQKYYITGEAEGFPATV

[3] = Selectivity ratio of RBA for ERbeta to RBA for ERalpha
[4] = biological target: T1, Estrogen receptor (Homo sapiens); test: Activity at ERalpha expressed in CHO cells co-transfected with ERE plasmid assessed as relative transcriptional activation at 10 nM by luciferase reporter assay relative to estradiol; type: cell-based
[5] = biological target: Estrogen receptor beta (Homo sapiens) (UniProt Q92731); test: Activity at ERbeta expressed in CHO cells co-transfected with ERE plasmid assessed as relative transcriptional activation at 10 nM by luciferase reporter assay relative to estradiol; type: cell-based

Chain of Estrogen receptor beta (Homo sapiens) (Q92731 whole entry): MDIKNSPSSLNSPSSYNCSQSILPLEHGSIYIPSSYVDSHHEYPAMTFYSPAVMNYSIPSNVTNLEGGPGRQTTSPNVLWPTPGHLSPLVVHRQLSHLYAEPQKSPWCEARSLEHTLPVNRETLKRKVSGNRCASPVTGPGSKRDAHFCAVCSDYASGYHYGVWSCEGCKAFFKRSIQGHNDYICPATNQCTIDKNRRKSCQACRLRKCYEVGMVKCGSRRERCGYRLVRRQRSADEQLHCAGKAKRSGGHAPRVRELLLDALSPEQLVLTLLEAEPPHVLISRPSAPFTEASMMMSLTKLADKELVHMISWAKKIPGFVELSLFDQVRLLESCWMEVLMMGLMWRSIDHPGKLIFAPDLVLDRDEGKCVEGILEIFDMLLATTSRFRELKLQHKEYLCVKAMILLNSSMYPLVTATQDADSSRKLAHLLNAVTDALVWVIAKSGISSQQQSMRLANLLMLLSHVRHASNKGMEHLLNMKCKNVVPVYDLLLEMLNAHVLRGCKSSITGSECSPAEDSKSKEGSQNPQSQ

RBA [1] [%] | RBA [2] [%] | Selectivity ratio [3] | Activity [4] [%] | Activity [5] [%] | SMILES
0.28 | 0.04 | 7 | – | – | C[C@]12CC[C@H](c3cc(F)c(O)c(F)c3)C[C@@H]1CC[C@@H]2O
0.59 | 0.06 | 9.8 | – | – | C[C@]12CC[C@@H](c3ccc(O)cc3)C[C@@H]1CC[C@@H]2O
– | 49 | 3.4 | – | – | C[C@]12CC[C@H](c3ccc(O)cc3Cl)C[C@@H]1CC[C@@H]2O
33.6 | 2.8 | 12 | 9.7 | 149 | Cc1cc(O)ccc1[C@H]1CC[C@@]2(C)[C@@H](CC[C@@H]2O)C1
– | – | 226 | – | – | C=Cc1cc(O)cc2nc(-c3ccc(O)c(F)c3)oc12

Continued, molecule first:

SMILES | RBA [1] [%] | RBA [2] [%] | Selectivity ratio [3] | Activity [4] [%] | Activity [5] [%]
C[C@]12CC[C@H](c3ccc(O)c(F)c3F)C[C@@H]1CC[C@@H]2O | 43 | 4.6 | 9.3 | – | –
C[C@]12CC[C@H](c3ccc(O)cc3)C[C@@H]1CC[C@@H]2O | 21.5 | 1.5 | 14 | 4.3 | 164
C[C@]12CC[C@H](c3cc(F)c(O)c(F)c3F)C[C@@H]1CC[C@@H]2O | 1.73 | 0.19 | 9.1 | – | –
C[C@]12CC[C@H](c3cc(F)c(O)cc3F)C[C@@H]1CC[C@@H]2O | 3.3 | 0.38 | 8.7 | – | –
C[C@]12CC[C@H](c3ccc(O)cc3F)C[C@@H]1CC[C@@H]2O | 135 | 27 | 5 | 44 | 146
C[C@]12CC[C@H](c3ccc(O)c(F)c3)C[C@@H]1CC[C@@H]2O | 8.7 | 1 | 8.7 | 8.3 | 14
O=c1c(-c2ccc(O)cc2)coc2cc(O)cc(O)c12 | – | – | 41 | – | –
